We go through 1 compound from patent US10495627B2, “Apparatus and method for early diagnosis of cell death” (LYNCEE TEC S.A., priority 2010, dated 2019).

In data set [1] the test system is primary cultures of mouse cortical neurons. Put plainly: Mean phase value on cell bodies monitored over time by digital holographic microscopy (DHM) after glutamate-induced excitotoxic stimulation. Type of data set: cell-based. An excerpt:
The particular implementation is a transmission DHM setup making possible to monitor cells in time through phase measurement. The sketch of the optical arrangement of the measurement setup is shown in FIG. 3, where the light emitted by a light source is split into two beams and recombined to generate an interference producing a hologram on the camera. […] Phase images are reconstructed by a numerical method for off-axis digital hologram reconstruction.
In the different experiments described below, the optical property, employed for cell death detection is the mean phase value measured on cell bodies and monitored during time. The phase value is intrinsically a relative measurement that has to be compared with a phase reference, usually taken as the phase shift induced by the perfusion medium. Physically, the phase value φ can thus be related to an optical path length (OPL) as
[formula] where the indices i and m correspond respectively to the intracellular content of the cell and to the perfusion medium, h is the height of the cell at position (x, y) and n is the mean refractive index (RI) along the optical axis. The phase is measured by calculating a spatial averaging of the phase value on a constant surface contained in the cell body, to which a reference phase value measured on a zone of the field of view containing no biological material has been subtracted.
The meaning of the phase measured with an interferometric method in this context is dependent on the height of the cell and on its intracellular RI. Therefore, the phase is linked both to the cell volume phenotype (through cell height), and to the intracellular content of cells phenotype (through RI), and thus indirectly to the osmotic regulation of the cell. The phase signal is therefore an indicator of cell volume regulation through both parameters, and can be indirectly linked to homeostasis through osmotic phenomena.
This particular study is performed on primary cultures of mouse cortical neurons, mounted on coverslips for optical measurement. Before experiment, coverslips are mounted on a perfusion chamber used to apply the different solutions to the cells, which are immersed in a HEPES-buffered standard physiological perfusion medium. As an example of application of cell death detection through volume regulation, we present in the following a detection of neuronal death induced through glutamate-induced excitotoxic stimulation, ultimately leading to cell death. The glutamate is a neurotransmitter activating neuronal receptors, leading under strong exposure to high level of intracellular calcium concentration, which can lead to death pathway triggering if not regulated properly.
(§1) In order to validate the measurement principle proposed in this application, the cell viability is also tested with trypan blue 0.4% reagent, to enable comparative measurements. The dye relies on probing the cell membrane integrity, which becomes permeable to the color compound at a certain level after cell death mechanisms started. After reagent wash-out, the cell nuclei of non-viable cells are consequently stained in blue, as the dye fixes on DNA material. Excitotoxic effects were studied during the experiments, by applying glutamate pulses at different concentration to the cells. The excitation solutions were prepared with concentrations ranging between 25 μM and 100 μM, depending on the type of experiment. Perfusion changes were performed by washing the chamber with a micropipette, making it possible to replace the perfusion medium through typically two washes of the medium.
The mean phase value measured on four cell bodies is shown in FIG. 4(a), where the reagent has been applied several times on the culture with an interval of approximately one hour. […]

Data set [2] shares this test system. Put plainly: Cell viability tested with trypan blue 0.4% reagent after glutamate stimulation. It counts as cell-based. The conditions noted are these: for trypan blue staining / time at which nucleus was stained by trypan blue (cell death): 90 seconds; for time at which cell death was confirmed with trypan blue: 120 seconds. On the procedure: as §1
In order to enable color measurement for cell viability assessment with the reagent, a flip mirror is inserted after the MO, so that the intensity image could also be recorded in focus with a color camera. When performing trypan blue staining, the illumination is changed to employ an incoherent halogen white light source to enable color measurement; this implies that during dye probing, no DHM measurement is performed, yielding part of unmeasured phase signal during time monitoring. Image merging between the two measurement techniques could be done through calibration of the system by imaging an object whose shape is well-known.
Brightfield color images of the culture, enabling the assessment through the trypan blue dye as a control experiment, are presented in FIGS. 4(b-c), respectively at t=30 min before the excitotoxic stimulation and t=290 min, where non viable cells are identified by the blue staining.

Setting [3] is: glutamate 50 μM during 90 seconds, cell 4.

“Also recorded” adds a separate entry of the source.

As for `N[C@@H](CCC(=O)O)C(=O)O` [glutamate], the phase variations entry in data set [1] (setting [3]) is on record as “below 10 °”. Also, in data set [1] (setting [3]), the “time to retrieve the same mean phase value” is listed as “approximately 10 minutes”. For the same compound, the phase signal drop entry in data set [1] (glutamate 50 μM during 90 seconds, three of four cells (cells 1 to 3)) was “approximately 40 °”. The phase response entry in data set [1] (glutamate pulse 25 μM, 90 seconds, n=10 cells) was “reversible responses in phase; also recorded: only recovery curves”; in data set [1] (glutamate pulse 50 μM, 90 s), “mixed responses between recovery and death”; in data set [1] (glutamate pulse 50 μM, 120 s) it was “irreversible signals”. For the same compound, the trypan blue staining entry in data set [2] (glutamate 25 μM, up to 4 hours and 30 minutes after stimulation) is reported as “all cells being unstained”; in data set [2] (glutamate 50 μM, cell 4, several hours after exposure) it was “remained unstained with a healthy morphology”. The “time at which nucleus was stained by trypan blue (cell death)” value in data set [2] (glutamate 50 μM, cell 1) worked out at 116 min; in data set [2] (glutamate 50 μM, cell 2) it was 207 min; in data set [2] (glutamate 50 μM, cell 3), 252 min. Further, the “time at which cell death was confirmed with trypan blue” value in data set [2] (glutamate 50 μM, cell 3) is on record as 385 min; in data set [2] (glutamate 50 μM, cells 1 and 2), 323 min.
